{
  "source": "patent US12569506B2",
  "about": "“Methods of treating osteonecrosis with LLP2A-bisphosphonate compounds” (The Regents of the University of California, priority 2016, dated 2026)",
  "key": {"[1]": {"system": "dexamethasone-treated mice", "assay": "Adipose and sinusoid volume of distal femoral epiphysis, 90 day model", "assay_type": "in vivo, BALB/c mice", "experimental": "FIG. 10A-10B. Adipose and sinusoid volume of femurs from treated mice. Mice were treated with placebo (PL), dexamethasone alone (Dex), Dex+250 μg/kg LLP2A-Ale, Dex+500 μg/kg LLP2A-Ale, or Dex+750 μg/kg LLP2A-Ale as described above for FIG. 7. (A) Mice were assessed for adipose volume within the distal femoral epiphysis region. […] (B) Mice were assessed for sinusoids in the bone marrow.\n(§1) Both the right and left distal femurs were fixed in 10% neutral buffered formalin and were shaken for 3 days, then decalcified in 5% EDTA until the bones were fully decalcified. The specimens were then processed in ascending concentrations of ethanol and embedded in paraffin. Tissue sections were cut into 5 microns sections, stained with hematoxylin and eosin and evaluated for the presence of osteonecrosis by bright field microscopy at 20× magnification. Experimental methods are also described in Mohan et al., Calif Tissue Int (2016) doi:10.1007/s00223-016-0195-6, which is incorporated herein by reference in its entirety for all purposes. Osteonecrosis was detected using modified criteria reported by Yang el al., (a mouse model for glucocorticoid-induced osteonecrosis: Effect of a steroid holiday. J Orthop Res. 2009; 27:169-75) which defines osteonecrosis as requiring all of the following changes: (1) empty lacunae, (2) pyknotic osteocyte nuclei in areas of empty lacunae and necrosis of adjacent bone marrow, (3) presence of excessive fat cells in the bone marrow, (4) cartilage degradation and (5) presence of fibrin thrombi in the blood vessels. In addition, trabecular bone volume, adipose volume, sinusoid volume and osteoblast surface at the distal femoral epiphyses were measured. Empty lacunae density was calculated by empty lacunae/total osteocytes within the entire distal femoral epiphysis region for each sample. Each section was scored by two experienced histologists, then a consensus reading was performed by two additional experienced histologists."}, "VEGF": {"system": "VEGF", "assay": "Serum VEGF levels by ELISA in glucocorticoid-treated mice", "assay_type": "in vivo", "details": "day 56; GC from day 1; LLP2A-Ale given at day 28; ELISA in duplicate (FIG. 4)", "experimental": "FIG. 4. Serum VEGF-A levels in glucocorticoid-treated mice. Mice treated with placebo (PL), glucocorticoid (GC), glucocorticoid and 250 μg/kg LLP2A-Ale (GC+LLP2A-Ale), glucocorticoid and PTH (GC+PTH), or glucocorticoid and PTH and 250 μg/kg LLP2A-Ale (GC+PTH+LLP2A-Ale) were measured for serum levels of VEGF.\nIncreased blood vessel formation can also be assessed by marker analysis. For example, VEGF is a pro-angiogenic factor and stimulates new blood vessel formation. […] PTH was given 20 ug/kg 5× a week, while LLP2A-Ale was given at […] at day 28 only."}, "[2]": {"system": "dexamethasone-treated mice", "assay": "Histological evaluation (H&E) of femoral epiphyses, 90 day model", "assay_type": "in vivo, BALB/c mice", "experimental": "FIG. 9A-9F. Histological evaluation of femurs from placebo- or dexamethasone-treated mice. Mice were treated with placebo (PL) or dexamethasone alone (Dex) as described above for FIG. 7. All mice were euthanized at day 90. Right and left distal femurs were fixed in 10% neutral buffer formalin and decalcified. The specimens were dehydrated, embedded in paraffin, cut into 5 micron sections and H&E stained. The sections were scored by two experienced histologists and then a consensus reading was performed by two additional histologists. FIG. 9A-9B: 4× (A) and 20× (B) magnifications of representative proximal femoral epiphyses in mice treated with placebo. (C) 4× magnification of a representative proximal femoral epiphyses in mice treated with dexamethasone (Dex) alone. FIGS. 9D, 9E, and 9F: 20× magnifications of representative proximal femoral epiphyses in mice treated with dexamethasone (Dex) alone.\nFIG. 11A-11F. Histological evaluation of femurs from LLP2A-Ale-treated mice. Mice were treated with Dex+250 μg/kg LLP2A-Ale as described above for FIG. 7. All mice were euthanized at day 90. Right and left distal femurs were fixed in 10% neutral buffer formalin and decalcified. The specimens were dehydrated, embedded in paraffin, cut into 5 micron sections and H&E stained. The sections were scored by two experienced histologists and then a consensus reading was performed by two additional histologists. (A, D): 4× magnifications of representative proximal femoral epiphyses in mice treated with Dex+LLP2A-Ale. (B, C, E, F): 20× magnifications of representative proximal femoral epiphyses in mice treated with Dex+LLP2A-Ale.\nas §1"}, "[3]": {"system": "dexamethasone-treated mice", "assay": "30 and 45 day prevention study: trabecular bone histology of distal femur epiphyses", "assay_type": "in vivo, BALB/c mice", "experimental": "(§2) The efficacy of LLP2A-Ale and hPTH (1-34) was evaluated over a 30 and 45 day study using a mouse model of glucocorticoid-induced osteonecrosis. Seven week-old male BALB/c mice were randomized into Placebo group (fresh water), glucocorticoid only (4 mg/L dexamethasone (Dex) in drinking water), Dex+250 μg/kg LLP2A-Ale, Dex+500 μg/kg LLP2A-Ale, or Dex+40 μg/kg hPTH (administered five times a week) for 30 or 45 days. At day 30 or 45, the mice were sacrificed. Study endpoints included histological evidence of osteonecrosis, bone mass, and prevalent blood vessels (CD31 and Endomucin expression) in the distal femur, and was performed as set forth in Example 2. Non-parametric Kruskal-Wallis tests were used to determine the differences between the groups."}, "[4]": {"system": "CD31 and Endomucin expression", "assay": "30 and 45 day prevention study: blood vessels in the distal femur (CD31 and Endomucin expression)", "assay_type": "in vivo, BALB/c mice", "details": "30 and 45 day study, conclusion", "experimental": "as §2"}},
  "note": "“Also recorded” adds a separate entry of the source.",
  "data": [
    {"compound": "Cc1ccccc1NC(=O)Nc1ccc(CC(=O)N[C@@H](CCCCNC(=O)/C=C/c2cccnc2)C(=O)N[C@@H](CCCC(=O)O)C(=O)NC2(C(=O)NCCOCCOCCNC(=O)CCC(=O)NCCOCCOCCNC(=O)CCC(=O)N[C@@H](CCCCNC(=O)[C@H](N)CSC3CC(=O)N(CC4CCC(C(=O)NCCCC(O)(P(=O)(O)O)P(=O)(O)O)CC4)C3=O)C(N)=O)CCCCC2)cc1", "note": "(some centres unmarked) [LLP2A-Ale]", "values": [
      {"measurement": "Sinusoid volume on increasing the dose", "setting": "[1]; LLP2A-Ale above 250 μg/kg vs 250 μg/kg", "result": "marginal decrease"},
      {"measurement": "Adipose volume within the distal femoral epiphysis", "setting": "[1]; all three dosages (250, 500, 750 μg/kg) vs Dex alone, day 90 (FIG. 10A)", "result": "reduced adipose volumes"},
      {"measurement": "Sinusoid volume in the bone marrow", "setting": "[1]; all three dosages vs placebo or Dex alone, day 90 (FIG. 10B)", "result": "increased sinusoid volumes"},
      {"measurement": "Serum levels of VEGF", "setting": "VEGF", "result": "returned the levels of serum VEGF to those of placebo treated animals"},
      {"measurement": "Sinusoid formation (histological sections of epiphyses)", "setting": "[2]; Dex+250 μg/kg LLP2A-Ale, day 90, H&E (FIG. 11)", "result": "increased sinusoid formation; also recorded: increase in sinusoid formation"},
      {"measurement": "Amount of fibrin within the bone marrow", "setting": "[2]; day 90", "result": "appeared to reduce the amount of fibrin"},
      {"measurement": "Number of osteoblasts on the bone surface in areas of osteonecrosis", "setting": "[2]; epiphyses, day 90", "result": "increased the number of osteoblasts"},
      {"measurement": "Adipocyte density in the bone marrow", "setting": "[2]; vs dexamethasone alone, day 90", "result": "appeared to reduce"},
      {"measurement": "Cellularity of the bone marrow", "setting": "[2]; vs dexamethasone alone, day 90", "result": "maintained the cellularity of the bone marrow"},
      {"measurement": "Number of empty lacunae/pyknotic nuclei", "setting": "[2]; vs dexamethasone alone, day 90", "result": "appeared to reduce"},
      {"measurement": "Sinusoidal red blood cell volume", "setting": "[2]; vs dexamethasone alone, day 90", "result": "increased the sinusoidal red blood cell volume"},
      {"measurement": "Trabecular bone volume", "setting": "[3]; day 30 and 45, Dex vs placebo, treated vs Dex (p<0.05)", "result": "higher bone volume"},
      {"measurement": "Trabecular separation", "setting": "[3]; vs Dex group, day 30 and 45 (p<0.05)", "result": "lower trabecular separation"},
      {"measurement": "Vascular integrity of the distal femur", "setting": "[4]", "result": "maintained the vascular integrity"}
    ]}
  ]
}
